Laboratory results as given in US12324827B2, “Combination therapy for the treatment of migraines” (The University of Chicago, priority 2019, dated 2025).
“Also recorded” adds a separate entry of the source.

Key:
mechanical hyperalgesia = assay: Acid saline-induced fibromyalgia model, hind paw withdrawal threshold by electronic von Frey; type: in vivo, female Wistar rats; conditions: nasal IGF-1 150 μg/dose on PD-2, PD-5, PD-8; experiments FM-7 and FM-8, n=3/group
Source text: However, due to its simplicity and reproducibility, a widely-used, non-inflammatory rodent model which mimics chronic, widespread muscle pain-like behavior was utilized. This fibromyalgia model consists of two unilateral injections of acid saline into the gastrocnemius muscle which produce bilateral, long-lasting mechanical hyperalgesia for up to 4 weeks without motor deficits or tissue damage observed histologically (Sluka et al., 2001), Hind paw withdrawal thresholds obtained using an electronic von Frey device were used as a measure of “inferred pain”.
Experimental Procedures here are described utilizing intranasal IGF-1 for treatment of pain related to the acid saline-induced fibromyalgia model. […]
Testing consists of placing rats in an acrylic cage module [23 cm×24 cm×14.6 cm (W×L×H)] which rests upon an elevated wire mesh grid floor (FIG. 21). […] The force at which this response occurs is recorded automatically by the electronic device and is designated as the paw withdrawal threshold (FIG. 22). […]
Two investigators were used for all experiments. […] The second investigator recorded paw withdrawal threshold (PWT) force levels, procedures modeled after the experimental strategy reported by Martinov et al., 2013. […]
Specifically, baseline (BA) measurements of paw withdrawal threshold (PWT) were determined for six animals/experiment prior to experimental treatment. […]

[1] = tested on: trigeminal ganglion malondialdehyde (MDA); assay: Trigeminal ganglion V1 malondialdehyde immunostaining after recurrent CSD, nasal IGF-1 with or without intravenous anti-CGRP antibody (Example 5); type: in vivo, rat
Description: Migraine will be modeled using recurrent CSD (Grinberg et al., 2019; Won and Kraig 2019a,b; Won and Kraig, 2020). Briefly, the day before recurrent CSD, animals are anesthetized with inhalational isoflurane in oxygen (2-5%) and treated with intranasal IGF-1 (150 μg in 50 μl succinate buffer).
The next day (i.e., 20-24 hours later) animals are again be anesthetized as above with inhalational isoflurane and the left femoral vein cannulated for antibody infusion. Select groups of animals (see below) are treated with intravenous infusion either 1 mg/kg anti-CGRP (ab81887) or isotype IgG2a control in 0.5-0.6 ml normal saline. After infusions, the femoral incision is closed with wound clips.
Animals are stabilized for an hour under anesthesia (1.5% isoflurane in oxygen) after head sutures are removed, eyes coated with Artificial Tears and animals made ready for initiation and recording of CSD under deeper (5%) isoflurane in oxygen, which is then lowered back to 1.5% isoflurane in oxygen during CSD recordings. CSD is initiated as described above one to four hours after antibody infusion. All animals receive nine KCl injections. […]
2. […] All animals for nasal delivery of IGF-1 plus intravenous treatment (i.e., one ml saline or anti-CGRP antibody) followed by 90 minutes of evoked CSDs) were analyzed for trigeminal cervical complex c-fos immunostaining and trigeminal ganglion malondialdehyde immunostaining as previously described (Won and Kraig, 2020).
The inventors used a verified method of quantifying immunostaining log-ratios (experimental/sham) as a further means to reduce potential run-to-run variations in immunostaining for malondialdehyde, CGRP and c-fos positive cells (Won and Kraig, 2020). Images of malondialdehyde and CGRP were analyzed in blinded pairs so that they could be converted once decoded to ratios of experimental/sham image integrated optical intensity, a sensitive metric that not only accounts for the area but also the pixel intensity of related image fluorescence.

spreading depression = conditions: cited from earlier work

IGF-1: human recombinant IGF-1 (#191-G1; R&D Systems), 150 μg in 50 μL sodium succinate buffer, delivered nose-to-brain
hind paw withdrawal threshold / pain-related behavior (mechanical hyperalgesia): significant and continued reduction in pain-related behavior; also recorded: protection against acid-induced hind paw hyperalgesia | ln ratio of trigeminal ganglion MDA immunostaining ([1]; nasal IGF-1 alone, as previously reported (Won and Kraig, 2020), n=5): −1.76±0.29 | ln ratio of trigeminal ganglion MDA immunostaining ([1]; nasal IGF-1 plus intravenous saline, n=3): −1.75±0.56 | ln ratio of trigeminal ganglion MDA immunostaining, combined groups ([1]; nasal IGF-1 with or without intravenous saline / nasal succinate, n=8): −1.76±0.39 | protection against SD over sham treatment (spreading depression; SD from KCl, pretreatment): ~27 fold | spreading depression in whole animals (spreading depression; nasal delivery): significantly inhibited spreading depression in whole animals
